Test results reported in ChEMBL document CHEMBL4507281, “Data for DCP probe BI-4394” (2021).

Tests used:
[1] = tested on: Tyrosine-protein kinase ABL1 (Homo sapiens), P00519 [M351T]; conditions: Compound concentration 100.0 nM
[2] = biological target: Activin receptor type-2B (Homo sapiens) (UniProt Q13705); conditions: Compound concentration 100.0 nM
[3] = biological target: RAC-gamma serine/threonine-protein kinase (Homo sapiens) (UniProt Q9Y243); conditions: Compound concentration 100.0 nM
[4] = biological target: Protein-tyrosine kinase 6 (Homo sapiens) (UniProt Q13882); conditions: Compound concentration 100.0 nM
[5] = biological target: Serine/threonine-protein kinase BRSK1 (Homo sapiens) (UniProt Q8TDC3); conditions: Compound concentration 100.0 nM
[6] = biological target: Serine/threonine-protein kinase BRSK2 (Homo sapiens) (UniProt Q8IWQ3); conditions: Compound concentration 100.0 nM
[7] = biological target: Calcium/calmodulin-dependent protein kinase type 1D (Homo sapiens) (UniProt Q8IU85); conditions: Compound concentration 100.0 nM
[8] = biological target: Calcium/calmodulin-dependent protein kinase type II subunit gamma (Homo sapiens) (UniProt Q13555); conditions: Compound concentration 100.0 nM
[9] = biological target: Macrophage colony-stimulating factor 1 receptor (Homo sapiens) (UniProt P07333); conditions: Compound concentration 100.0 nM
[10] = biological target: Tyrosine-protein kinase CSK (Homo sapiens) (UniProt P41240); conditions: Compound concentration 100.0 nM
[11] = biological target: Casein kinase I isoform gamma-1 (Homo sapiens) (UniProt Q9HCP0); conditions: Compound concentration 100.0 nM
[12] = biological target: Casein kinase I isoform gamma-3 (Homo sapiens) (UniProt Q9Y6M4); conditions: Compound concentration 100.0 nM
[13] = biological target: Discoidin domain-containing receptor 2 (Homo sapiens) (UniProt Q16832); conditions: Compound concentration 100.0 nM
[14] = tested on: Epidermal growth factor receptor (Homo sapiens), P00533 [UNDEFINED MUTATION]; conditions: Compound concentration 100.0 nM
[15] = biological target: Ephrin type-B receptor 4 (Homo sapiens) (UniProt P54760); conditions: Compound concentration 100.0 nM
[16] = biological target: Receptor tyrosine-protein kinase erbB-2 (Homo sapiens) (UniProt P04626); conditions: Compound concentration 100.0 nM
[17] = biological target: Mitogen-activated protein kinase 3 (Homo sapiens) (UniProt P27361); conditions: Compound concentration 100.0 nM
[18] = biological target: Tyrosine-protein kinase Fgr (Homo sapiens) (UniProt P09769); conditions: Compound concentration 100.0 nM
[19] = biological target: Insulin-like growth factor 1 receptor (Homo sapiens) (UniProt P08069); conditions: Compound concentration 100.0 nM
[20] = biological target: MAP kinase-activated protein kinase 2 (Homo sapiens) (UniProt P49137); conditions: Compound concentration 100.0 nM
[21] = biological target: MAP/microtubule affinity-regulating kinase 4 (Homo sapiens) (UniProt Q96L34); conditions: Compound concentration 100.0 nM
[22] = biological target: Myosin light chain kinase (Homo sapiens) (UniProt Q32MK0); conditions: Compound concentration 100.0 nM
[23] = biological target: Macrophage-stimulating protein receptor (Homo sapiens) (UniProt Q04912); conditions: Compound concentration 100.0 nM
[24] = biological target: Serine/threonine-protein kinase 24 (Homo sapiens) (UniProt Q9Y6E0); conditions: Compound concentration 100.0 nM
[25] = biological target: Myosin-IIIb (Homo sapiens) (UniProt Q8WXR4); conditions: Compound concentration 100.0 nM
[26] = biological target: Serine/threonine-protein kinase Nek3 (Homo sapiens) (UniProt P51956); conditions: Compound concentration 100.0 nM
[27] = biological target: Serine/threonine-protein kinase NLK (Homo sapiens) (UniProt Q9UBE8); conditions: Compound concentration 100.0 nM
[28] = biological target: Serine/threonine-protein kinase OSR1 (Homo sapiens) (UniProt O95747); conditions: Compound concentration 100.0 nM
[29] = biological target: Serine/threonine-protein kinase PAK 1 (Homo sapiens) (UniProt Q13153); conditions: Compound concentration 100.0 nM
[30] = biological target: Serine/threonine-protein kinase PAK 3 (Homo sapiens) (UniProt O75914); conditions: Compound concentration 100.0 nM
[31] = biological target: Cyclin-dependent kinase 2 homolog (Plasmodium falciparum (isolate 3D7)) (UniProt P61075); conditions: Compound concentration 100.0 nM
[32] = biological target: Phosphorylase b kinase gamma catalytic chain, skeletal muscle/heart isoform (Homo sapiens) (UniProt Q16816); conditions: Compound concentration 100.0 nM
[33] = tested on: Phosphatidylinositol 4,5-bisphosphate 3-kinase catalytic subunit alpha isoform (Homo sapiens), P42336 [H1047L]; conditions: Compound concentration 100.0 nM
[34] = biological target: Phosphatidylinositol 5-phosphate 4-kinase type-2 gamma (Homo sapiens) (UniProt Q8TBX8); conditions: Compound concentration 100.0 nM
[35] = biological target: Serine/threonine-protein kinase D3 (Homo sapiens) (UniProt O94806); conditions: Compound concentration 100.0 nM
[36] = biological target: Serine/threonine-protein kinase RIO3 (Homo sapiens) (UniProt O14730); conditions: Compound concentration 100.0 nM
[37] = biological target: Ribosomal protein S6 kinase alpha-5 (Homo sapiens) (UniProt O75582); conditions: Compound concentration 100.0 nM
[38] = biological target: SRSF protein kinase 1 (Homo sapiens) (UniProt Q96SB4); conditions: Compound concentration 100.0 nM
[39] = biological target: Serine/threonine-protein kinase TAO3 (Homo sapiens) (UniProt Q9H2K8); conditions: Compound concentration 100.0 nM
[40] = biological target: Tyrosine-protein kinase TXK (Homo sapiens) (UniProt P42681); conditions: Compound concentration 100.0 nM
[41] = biological target: Wee1-like protein kinase (Homo sapiens) (UniProt P30291); conditions: Compound concentration 100.0 nM
[42] = biological target: Serine/threonine-protein kinase 32A (Homo sapiens) (UniProt Q8WU08); conditions: Compound concentration 100.0 nM
[43] = biological target: GABA-A receptor; anion channel (Rattus norvegicus) (UniProt O09028+P15431+P18506+P18508+P19969+P20236+P23574+P23576+P28471+P28473+P30191+P62813+P63079+P63138+Q91ZM7+Q9ES14); conditions: Compound concentration 10.0 uM
[44] = biological target: Alpha-1B adrenergic receptor (Homo sapiens) (UniProt P35368); conditions: Compound concentration 10.0 uM

Myosin-IIIb (Homo sapiens), sequence (Q8WXR4 whole entry): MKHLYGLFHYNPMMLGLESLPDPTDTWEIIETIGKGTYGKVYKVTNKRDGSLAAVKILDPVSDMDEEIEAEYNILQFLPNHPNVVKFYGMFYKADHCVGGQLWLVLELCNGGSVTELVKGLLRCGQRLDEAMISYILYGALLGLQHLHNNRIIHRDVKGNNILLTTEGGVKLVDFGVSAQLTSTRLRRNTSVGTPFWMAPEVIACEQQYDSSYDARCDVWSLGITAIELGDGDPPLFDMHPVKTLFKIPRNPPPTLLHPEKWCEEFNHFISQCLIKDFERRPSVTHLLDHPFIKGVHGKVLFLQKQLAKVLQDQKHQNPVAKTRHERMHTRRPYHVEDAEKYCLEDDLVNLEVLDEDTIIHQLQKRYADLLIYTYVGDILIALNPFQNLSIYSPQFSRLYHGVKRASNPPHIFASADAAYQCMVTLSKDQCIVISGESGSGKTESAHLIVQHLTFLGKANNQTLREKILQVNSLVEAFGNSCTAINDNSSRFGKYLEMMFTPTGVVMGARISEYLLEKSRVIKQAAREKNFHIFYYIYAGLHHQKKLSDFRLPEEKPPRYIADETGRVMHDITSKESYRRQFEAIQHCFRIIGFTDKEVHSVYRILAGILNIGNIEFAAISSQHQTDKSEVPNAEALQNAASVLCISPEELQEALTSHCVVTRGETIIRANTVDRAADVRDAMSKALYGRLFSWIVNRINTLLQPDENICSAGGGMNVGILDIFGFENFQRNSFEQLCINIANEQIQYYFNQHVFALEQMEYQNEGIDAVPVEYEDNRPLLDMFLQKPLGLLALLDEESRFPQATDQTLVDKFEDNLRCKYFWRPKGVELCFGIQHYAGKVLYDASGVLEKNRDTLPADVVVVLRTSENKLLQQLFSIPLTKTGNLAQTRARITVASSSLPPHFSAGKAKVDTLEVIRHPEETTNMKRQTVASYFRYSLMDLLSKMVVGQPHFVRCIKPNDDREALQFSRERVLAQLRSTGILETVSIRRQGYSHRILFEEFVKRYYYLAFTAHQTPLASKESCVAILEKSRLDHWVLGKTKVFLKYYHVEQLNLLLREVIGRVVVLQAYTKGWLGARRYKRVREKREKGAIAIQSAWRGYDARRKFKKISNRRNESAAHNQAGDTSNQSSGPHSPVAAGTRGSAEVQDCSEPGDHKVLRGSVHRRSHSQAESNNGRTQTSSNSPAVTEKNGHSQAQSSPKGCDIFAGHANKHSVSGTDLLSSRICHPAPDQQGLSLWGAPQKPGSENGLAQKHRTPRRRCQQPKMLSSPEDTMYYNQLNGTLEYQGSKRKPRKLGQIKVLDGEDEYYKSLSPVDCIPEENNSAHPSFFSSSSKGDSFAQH
Casein kinase I isoform gamma-3 (Homo sapiens), sequence (Q9Y6M4 whole entry, looked up, the tested form may be a part, canonical isoform): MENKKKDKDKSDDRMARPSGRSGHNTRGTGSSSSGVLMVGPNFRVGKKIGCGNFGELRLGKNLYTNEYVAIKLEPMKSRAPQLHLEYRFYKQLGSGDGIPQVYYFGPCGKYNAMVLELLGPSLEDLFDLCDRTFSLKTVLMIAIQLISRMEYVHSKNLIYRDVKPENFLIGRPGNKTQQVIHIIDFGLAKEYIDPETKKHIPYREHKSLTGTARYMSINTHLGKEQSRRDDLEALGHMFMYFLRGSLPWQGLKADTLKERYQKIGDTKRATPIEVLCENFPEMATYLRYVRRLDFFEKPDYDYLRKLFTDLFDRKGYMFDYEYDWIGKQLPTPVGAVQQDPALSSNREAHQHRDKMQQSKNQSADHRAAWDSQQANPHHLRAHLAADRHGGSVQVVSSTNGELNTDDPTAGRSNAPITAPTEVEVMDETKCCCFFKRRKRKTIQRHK
Serine/threonine-protein kinase NLK (Homo sapiens), sequence (Q9UBE8 whole entry): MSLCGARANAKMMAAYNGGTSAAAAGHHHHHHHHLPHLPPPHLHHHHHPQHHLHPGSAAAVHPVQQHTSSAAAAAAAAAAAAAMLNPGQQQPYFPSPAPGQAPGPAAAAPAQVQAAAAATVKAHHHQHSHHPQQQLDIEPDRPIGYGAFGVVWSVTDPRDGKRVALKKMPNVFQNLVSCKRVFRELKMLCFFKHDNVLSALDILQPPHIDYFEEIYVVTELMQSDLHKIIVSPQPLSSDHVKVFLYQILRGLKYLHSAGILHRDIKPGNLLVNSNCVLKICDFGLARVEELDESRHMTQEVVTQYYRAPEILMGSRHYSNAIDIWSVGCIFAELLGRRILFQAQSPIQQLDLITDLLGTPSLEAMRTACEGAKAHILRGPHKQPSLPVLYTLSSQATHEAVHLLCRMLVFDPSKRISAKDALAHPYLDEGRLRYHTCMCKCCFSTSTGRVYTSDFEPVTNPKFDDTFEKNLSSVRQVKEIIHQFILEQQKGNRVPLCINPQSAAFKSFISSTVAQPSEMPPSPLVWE
Tyrosine-protein kinase TXK (Homo sapiens), sequence (P42681 whole entry): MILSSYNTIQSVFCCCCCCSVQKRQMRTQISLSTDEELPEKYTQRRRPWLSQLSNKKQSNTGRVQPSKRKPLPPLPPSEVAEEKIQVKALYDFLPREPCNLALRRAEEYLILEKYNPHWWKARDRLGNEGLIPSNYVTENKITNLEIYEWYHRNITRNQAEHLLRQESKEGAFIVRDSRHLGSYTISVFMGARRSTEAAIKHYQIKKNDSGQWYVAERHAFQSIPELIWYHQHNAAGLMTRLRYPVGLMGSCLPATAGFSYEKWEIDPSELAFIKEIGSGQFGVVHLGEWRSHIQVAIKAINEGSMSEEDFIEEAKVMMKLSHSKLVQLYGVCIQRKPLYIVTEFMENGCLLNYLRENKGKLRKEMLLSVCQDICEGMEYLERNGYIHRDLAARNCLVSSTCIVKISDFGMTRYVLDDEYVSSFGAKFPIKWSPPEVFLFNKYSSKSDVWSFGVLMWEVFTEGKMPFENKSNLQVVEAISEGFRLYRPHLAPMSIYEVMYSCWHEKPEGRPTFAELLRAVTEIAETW
Serine/threonine-protein kinase RIO3 (Homo sapiens), sequence (O14730 whole entry): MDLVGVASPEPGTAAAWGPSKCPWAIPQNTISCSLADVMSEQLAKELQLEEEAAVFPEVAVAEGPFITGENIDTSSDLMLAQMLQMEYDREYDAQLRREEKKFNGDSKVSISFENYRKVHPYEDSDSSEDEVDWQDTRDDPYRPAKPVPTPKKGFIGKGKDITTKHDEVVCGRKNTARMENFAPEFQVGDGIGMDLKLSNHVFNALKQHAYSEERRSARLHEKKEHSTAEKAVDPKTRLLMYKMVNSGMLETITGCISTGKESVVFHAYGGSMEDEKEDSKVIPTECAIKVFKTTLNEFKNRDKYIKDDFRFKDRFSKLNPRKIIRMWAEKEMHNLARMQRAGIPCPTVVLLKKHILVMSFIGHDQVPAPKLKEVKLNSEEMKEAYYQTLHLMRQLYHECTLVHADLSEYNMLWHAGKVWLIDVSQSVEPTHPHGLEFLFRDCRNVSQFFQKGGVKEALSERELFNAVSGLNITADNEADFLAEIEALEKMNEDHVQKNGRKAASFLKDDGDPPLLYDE
Tyrosine-protein kinase CSK (Homo sapiens), sequence (P41240 2-450 limits assumed): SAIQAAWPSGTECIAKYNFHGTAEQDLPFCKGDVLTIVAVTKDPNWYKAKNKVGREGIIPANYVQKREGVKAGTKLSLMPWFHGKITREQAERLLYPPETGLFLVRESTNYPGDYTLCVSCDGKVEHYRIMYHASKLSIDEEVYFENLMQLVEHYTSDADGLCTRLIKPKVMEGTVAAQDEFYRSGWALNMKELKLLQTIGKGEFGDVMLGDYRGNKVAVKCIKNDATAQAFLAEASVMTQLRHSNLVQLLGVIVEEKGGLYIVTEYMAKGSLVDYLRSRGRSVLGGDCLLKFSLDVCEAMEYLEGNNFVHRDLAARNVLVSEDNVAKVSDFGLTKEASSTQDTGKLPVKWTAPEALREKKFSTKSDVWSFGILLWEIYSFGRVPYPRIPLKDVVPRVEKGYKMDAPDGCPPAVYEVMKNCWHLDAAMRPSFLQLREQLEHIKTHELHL
Cyclin-dependent kinase 2 homolog (Plasmodium falciparum (isolate 3D7)), sequence (P61075 whole entry, canonical isoform): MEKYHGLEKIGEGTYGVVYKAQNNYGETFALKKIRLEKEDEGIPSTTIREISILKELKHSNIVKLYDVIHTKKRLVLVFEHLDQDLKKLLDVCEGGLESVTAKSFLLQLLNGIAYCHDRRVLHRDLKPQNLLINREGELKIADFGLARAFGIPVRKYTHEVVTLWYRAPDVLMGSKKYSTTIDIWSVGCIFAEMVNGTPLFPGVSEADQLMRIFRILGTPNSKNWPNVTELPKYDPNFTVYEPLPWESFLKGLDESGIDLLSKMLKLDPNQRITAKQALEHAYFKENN
Serine/threonine-protein kinase BRSK2 (Homo sapiens), sequence (Q8IWQ3 whole entry): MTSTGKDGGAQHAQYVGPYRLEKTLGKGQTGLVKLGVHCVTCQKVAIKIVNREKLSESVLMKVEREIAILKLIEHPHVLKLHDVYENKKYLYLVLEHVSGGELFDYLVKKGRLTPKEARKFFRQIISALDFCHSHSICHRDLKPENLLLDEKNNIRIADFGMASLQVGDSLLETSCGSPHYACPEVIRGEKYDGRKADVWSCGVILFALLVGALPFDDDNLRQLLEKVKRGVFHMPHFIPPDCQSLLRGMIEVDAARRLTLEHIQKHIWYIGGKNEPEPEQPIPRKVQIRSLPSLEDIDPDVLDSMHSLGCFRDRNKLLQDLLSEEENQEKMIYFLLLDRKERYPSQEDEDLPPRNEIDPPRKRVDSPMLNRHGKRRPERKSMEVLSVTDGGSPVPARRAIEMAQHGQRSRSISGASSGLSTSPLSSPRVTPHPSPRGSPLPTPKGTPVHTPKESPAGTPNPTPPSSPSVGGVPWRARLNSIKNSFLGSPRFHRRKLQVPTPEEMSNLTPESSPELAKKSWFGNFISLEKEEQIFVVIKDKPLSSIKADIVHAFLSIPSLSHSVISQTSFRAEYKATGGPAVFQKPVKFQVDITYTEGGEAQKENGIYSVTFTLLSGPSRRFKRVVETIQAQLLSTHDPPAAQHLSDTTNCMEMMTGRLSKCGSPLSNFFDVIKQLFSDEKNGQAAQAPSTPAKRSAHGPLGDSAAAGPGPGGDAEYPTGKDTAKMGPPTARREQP

Q: `Cn1nc(C(=O)NCc2ccc(C(=O)O)cc2)cc1-c1ccc2[nH]ccc2c1` [BI 4395] was tested. Which residual activity [1] did it give?
A: Its residual activity is 75%.

Q: And the residual activity [2]?
A: Its residual activity is 100%.

Q: And the residual activity [3]?
A: The residual activity was 88%.

Q: What about the residual activity [4] of the same molecule?
A: The residual activity was 89%.

Q: What about the residual activity [5] of the same molecule?
A: Its residual activity is 86%.

Q: What about the residual activity [6] of the same molecule?
A: Its residual activity is 100%.

Q: And the residual activity [7]?
A: Its residual activity is 95%.

Q: What about the residual activity [8] of the same molecule?
A: The residual activity was 83%.

Q: And the residual activity [9]?
A: Its residual activity is 98%.

Q: And the residual activity [10]?
A: The residual activity was 94%.

Q: And the residual activity [11]?
A: Its residual activity is 91%.

Q: What about the residual activity [12] of the same molecule?
A: Its residual activity is 94%.

Q: What about the residual activity [13] of the same molecule?
A: Its residual activity is 75%.

Q: And the residual activity [14]?
A: Its residual activity is 92%.

Q: And the residual activity [15]?
A: Its residual activity is 100%.

Q: What about the residual activity [16] of the same molecule?
A: Its residual activity is 92%.

Q: And the residual activity [17]?
A: The residual activity was 94%.

Q: What about the residual activity [18] of the same molecule?
A: The residual activity was 87%.

Q: What about the residual activity [19] of the same molecule?
A: The residual activity was 91%.

Q: What about the residual activity [20] of the same molecule?
A: The residual activity was 55%.

Q: What about the residual activity [21] of the same molecule?
A: Its residual activity is 100%.

Q: And the residual activity [22]?
A: Its residual activity is 100%.

Q: And the residual activity [23]?
A: The residual activity was 100%.

Q: What about the residual activity [24] of the same molecule?
A: Its residual activity is 97%.

Q: What about the residual activity [25] of the same molecule?
A: The residual activity was 100%.

Q: What about the residual activity [26] of the same molecule?
A: Its residual activity is 100%.

Q: What about the residual activity [27] of the same molecule?
A: Its residual activity is 100%.

Q: And the residual activity [28]?
A: The residual activity was 88%.

Q: What about the residual activity [29] of the same molecule?
A: Its residual activity is 86%.

Q: And the residual activity [30]?
A: Its residual activity is 82%.

Q: What about the residual activity [31] of the same molecule?
A: Its residual activity is 74%.

Q: And the residual activity [32]?
A: Its residual activity is 100%.

Q: And the residual activity [33]?
A: The residual activity was 100%.

Q: What about the residual activity [34] of the same molecule?
A: Its residual activity is 63%.

Q: And the residual activity [35]?
A: The residual activity was 89%.

Q: What about the residual activity [36] of the same molecule?
A: The residual activity was 83%.

Q: What about the residual activity [37] of the same molecule?
A: Its residual activity is 76%.

Q: And the residual activity [38]?
A: The residual activity was 33%.

Q: And the residual activity [39]?
A: Its residual activity is 83%.

Q: What about the residual activity [40] of the same molecule?
A: Its residual activity is 90%.

Q: And the residual activity [41]?
A: Its residual activity is 100%.

Q: And the residual activity [42]?
A: Its residual activity is 92%.

Q: What about the inhibition [43] of the same molecule?
A: Its inhibition is 26.6%.

Q: And the inhibition [44]?
A: The inhibition was -6.1%.

Q: For `CCOC(=O)c1cc2cc(-c3cc(C(=O)NCc4ccc(C(=O)O)cc4)nn3C)ccc2[nH]1` [BI 4394], which residual activity [1] is on record?
A: The residual activity was 90%.

Q: What about the residual activity [2] of the same molecule?
A: Its residual activity is 91%.

Q: What about the residual activity [3] of the same molecule?
A: Its residual activity is 86%.

Q: And the residual activity [4]?
A: The residual activity was 98%.

Q: And the residual activity [5]?
A: The residual activity was 100%.

Q: What about the residual activity [6] of the same molecule?
A: Its residual activity is 67%.

Q: And the residual activity [7]?
A: The residual activity was 100%.

Q: And the residual activity [8]?
A: The residual activity was 100%.

Q: What about the residual activity [9] of the same molecule?
A: The residual activity was 94%.

Q: What about the residual activity [10] of the same molecule?
A: Its residual activity is 74%.

Q: What about the residual activity [11] of the same molecule?
A: Its residual activity is 100%.

Q: And the residual activity [12]?
A: The residual activity was 100%.

Q: What about the residual activity [13] of the same molecule?
A: The residual activity was 76%.

Q: And the residual activity [14]?
A: Its residual activity is 94%.

Q: What about the residual activity [15] of the same molecule?
A: Its residual activity is 99%.

Q: And the residual activity [16]?
A: Its residual activity is 99%.

Q: And the residual activity [17]?
A: The residual activity was 88%.

Q: What about the residual activity [18] of the same molecule?
A: Its residual activity is 94%.

Q: What about the residual activity [19] of the same molecule?
A: The residual activity was 82%.

Q: And the residual activity [20]?
A: Its residual activity is 72%.

Q: And the residual activity [21]?
A: The residual activity was 79%.

Q: And the residual activity [22]?
A: Its residual activity is 89%.

Q: And the residual activity [23]?
A: Its residual activity is 100%.

Q: What about the residual activity [24] of the same molecule?
A: The residual activity was 92%.

Q: And the residual activity [25]?
A: Its residual activity is 84%.

Q: What about the residual activity [26] of the same molecule?
A: The residual activity was 88%.

Q: And the residual activity [27]?
A: The residual activity was 86%.

Q: What about the residual activity [28] of the same molecule?
A: Its residual activity is 100%.

Q: And the residual activity [29]?
A: Its residual activity is 92%.

Q: What about the residual activity [30] of the same molecule?
A: Its residual activity is 77%.

Q: What about the residual activity [31] of the same molecule?
A: Its residual activity is 65%.

Q: What about the residual activity [32] of the same molecule?
A: The residual activity was 100%.

Q: And the residual activity [33]?
A: The residual activity was 100%.

Q: And the residual activity [34]?
A: Its residual activity is 95%.

Q: And the residual activity [35]?
A: Its residual activity is 100%.

Q: And the residual activity [36]?
A: Its residual activity is 100%.

Q: What about the residual activity [37] of the same molecule?
A: The residual activity was 91%.

Q: And the residual activity [38]?
A: Its residual activity is 75%.

Q: What about the residual activity [39] of the same molecule?
A: Its residual activity is 85%.

Q: What about the residual activity [40] of the same molecule?
A: Its residual activity is 90%.

Q: What about the residual activity [41] of the same molecule?
A: The residual activity was 90%.

Q: What about the residual activity [42] of the same molecule?
A: Its residual activity is 75%.

Q: What about the inhibition [43] of the same molecule?
A: Its inhibition is 15.3%.

Q: What about the inhibition [44] of the same molecule?
A: The inhibition was -1.29%.
